Experimental data taken from patent US8618289B2 (Ambit Biosciences Corporation, priority 2008, dated 2013).
Structures can show the parent of a compound that is named as a salt.

Columns and labels:
RAF kinases = RAF kinases (Homo sapiens, UniProt P15056); experiment: biochemical
A375 cells = experiment: cells; conditions: Homo sapiens, A-375, read-out: A375 Viability EC50
[1] = tested on: MEK1 phosphorylation in the A375 human melanoma cell line; experiment: cells; conditions: A-375, read-out: pMEK IC50

Chain of RAF kinases (P15056 whole entry): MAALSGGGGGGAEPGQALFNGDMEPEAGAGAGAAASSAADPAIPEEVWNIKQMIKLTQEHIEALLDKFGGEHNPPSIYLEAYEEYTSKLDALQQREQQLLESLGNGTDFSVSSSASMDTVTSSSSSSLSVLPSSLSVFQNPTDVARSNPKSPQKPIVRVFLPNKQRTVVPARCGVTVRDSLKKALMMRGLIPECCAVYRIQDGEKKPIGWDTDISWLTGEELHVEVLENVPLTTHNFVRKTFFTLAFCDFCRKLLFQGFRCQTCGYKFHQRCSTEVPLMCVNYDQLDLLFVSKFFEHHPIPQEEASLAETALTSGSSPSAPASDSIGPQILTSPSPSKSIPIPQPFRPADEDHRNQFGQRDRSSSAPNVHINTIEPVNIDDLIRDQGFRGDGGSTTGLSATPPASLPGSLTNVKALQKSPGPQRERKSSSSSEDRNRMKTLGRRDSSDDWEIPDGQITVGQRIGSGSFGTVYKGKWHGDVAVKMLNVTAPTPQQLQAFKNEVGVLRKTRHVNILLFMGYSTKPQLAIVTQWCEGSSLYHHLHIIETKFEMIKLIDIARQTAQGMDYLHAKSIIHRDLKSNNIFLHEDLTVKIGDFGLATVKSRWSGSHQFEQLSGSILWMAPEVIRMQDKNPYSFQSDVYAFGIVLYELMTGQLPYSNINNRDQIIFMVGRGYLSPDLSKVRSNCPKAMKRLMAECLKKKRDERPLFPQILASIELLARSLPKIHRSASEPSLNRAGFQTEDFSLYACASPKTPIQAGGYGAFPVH

Row | SMILES | Kd (RAF kinases) [µM] | EC50 (A375 cells) [µM] | IC50 [1] [µM]
1 | COc1cc2ncnc(Oc3cccc(NC(=O)Nc4cc(C(C)(C)C)on4)c3)c2cc1OCCN1CCCCC1 [Ex 16, 1-(5-tert-butylisoxazol-3-yl)-3-(3-(7-methoxy-6-(2-(piperidin-1-yl)ethoxy)quinazolin-4-yloxy)phenyl)urea] | 0.5 to 1 | > 1 | 0.25 to 0.5
2 | COc1cc2ncnc(Oc3cccc(NC(=O)Nc4cc(C(C)(C)C)on4)c3)c2cc1OCCCN1CCS(=O)(=O)CC1 [Ex 26, 1-(5-tert-butyl-isoxazol-3-yl)-3-(3-{6-[3-(1,1-dioxo-thiomorpholin-4-yl)-propoxy]-7-methoxy-quinazolin-4-yloxy}-phenyl)-urea] | 0.25 to 0.5 | < 0.25 | < 0.25
3 | COc1cc2c(Oc3cccc(NC(=O)Nc4cc(C(C)(C)C)on4)c3)ncnc2cc1OCCCN1CCN(C)CC1 [Ex 28, 1-(5-tert-butylisoxazol-3-yl)-3-(3-(6-methoxy-7-(3-(4-methylpiperazin-1-yl)propoxy)quinazolin-4-yloxy)phenyl)urea] | 0.25 to 0.5 | < 0.25 | < 0.25
4 | COc1cc2ncnc(Sc3cccc(NC(=O)Nc4cc(C(C)(C)C)on4)c3)c2cc1OCCCN1CCN(CCO)CC1 [Ex 61, 1-(5-tert-butylisoxazol-3-yl)-3-(3-(6-(3-(4-(2-hydroxyethyl)piperazin-1-yl)propoxy)-7-methoxyquinazolin-4-ylthio)phenyl)urea] | 0.25 to 0.5 | > 1 | > 1
5 | COc1cc2ncnc(Sc3cccc(NC(=O)Nc4cc(C(C)(C)C)on4)c3)c2cc1OCCCN1CCS(=O)(=O)CC1 [Ex 62, 1-(5-tert-butyl-isoxazol-3-yl)-3-(3-{6-[3-(1,1-dioxo-thiomorpholin-4-yl)-propoxy]-7-methoxy-quinazolin-4-ylsulfanyl}-phenyl)-urea] | 0.25 to 0.5 | < 0.25 | < 0.25
6 | COc1cc2ncnc(Sc3cccc(NC(=O)Nc4cc(C(C)(C)C)on4)c3)c2cc1OCCCN1CCOCC1 [Ex 63, 1-(5-tert-butylisoxazol-3-yl)-3-(3-(7-methoxy-6-(3-morpholinopropoxy)quinazolin-4-ylthio)phenyl)urea] | 0.25 to 0.5 | 0.5 to 1 | < 0.25
7 | COc1cc2ncnc(Sc3cccc(NC(=O)Nc4cc(C(C)(C)C)on4)c3)c2cc1OCCN1CCOCC1 [Ex 70, 1-(5-tert-butylisoxazol-3-yl)-3-(3-(7-methoxy-6-(2-morpholinoethoxy)quinazolin-4-ylthio)phenyl)urea] | 0.25 to 0.5 | < 0.25 | < 0.25
8 | COc1cc2c(Sc3cccc(NC(=O)Nc4cc(C(C)(C)C)on4)c3)ncnc2cc1OCCCN1CCC(CO)CC1 [Ex 74, 1-(5-tert-butylisoxazol-3-yl)-3-(3-(7-(3-(4-(hydroxymethyl)piperidin-1-yl)propoxy)-6-methoxyquinazolin-4-ylthio)phenyl)urea] | 0.25 to 0.5 | 0.25 to 0.5 | < 0.25
9 | COc1cc2c(Oc3cccc(NC(=O)Nc4cc(C(C)(C)C)on4)c3)ncnc2cc1O[C@H]1CCNC1 [Ex 96, (S)-1-(5-tert-butylisoxazol-3-yl)-3-(3-(6-methoxy-7-(pyrrolidin-3-yloxy)quinazolin-4-yloxy)phenyl)urea dihydrochloride] | 0.25 to 0.5 | > 1 | 0.25 to 0.5
10 | COc1cc2c(Oc3cccc(NC(=O)Nc4cc(C(C)(C)C)on4)c3)ncnc2cc1O[C@@H]1CCNC1 [Ex 98, (R)-1-(5-tert-butylisoxazol-3-yl)-3-(3-(6-methoxy-7-(pyrrolidin-3-yloxy)quinazolin-4-yloxy)phenyl)urea dihydrochloride] | 0.25 to 0.5 | > 1 | 0.5 to 1
11 | COc1cc2ncnc(Oc3cccc(NC(=O)Nc4cc(C(C)(C)C)on4)c3)c2cc1O [Ex 107, 1-(5-tert-butylisoxazol-3-yl)-3-(3-(6-hydroxy-7-methoxyquinazolin-4-yloxy)phenyl)urea] | 0.25 to 0.5 | 0.25 to 0.5 | < 0.25
12 | COc1cc2ncnc(Oc3cccc(NC(=O)Nc4cc(C(C)(C)C)on4)c3)c2cc1O[C@H]1CCN(CC(F)F)C1 [Ex 110, (S)-1-(5-tert-butylisoxazol-3-yl)-3-(3-(6-(1-(2,2-difluoroethyl)pyrrolidin-3-yloxy)-7-methoxyquinazolin-4-yloxy)phenyl)urea] | 0.25 to 0.5 | < 0.25 | < 0.25
13 | COc1cc2ncnc(Oc3cccc(NC(=O)Nc4cc(C(C)(C)C)on4)c3)c2cc1OC[C@@H](O)CN1CCN(C)CC1 [Ex 111, (S)-1-(5-tert-butylisoxazol-3-yl)-3-(3-(6-(2-hydroxy-3-(4-methylpiperazin-1-yl)propoxy)-7-methoxyquinazolin-4-yloxy)phenyl)urea] | 0.25 to 0.5 | 0.25 to 0.5 | < 0.25
14 | COc1cc2ncnc(Oc3cccc(NC(=O)Nc4cccc(C(C)(C)C)c4)c3)c2cc1OC [Ex 118, 1-(3-tert-butylphenyl)-3-(3-(6,7-dimethoxyquinazolin-4-yloxy)phenyl)urea] | 0.25 to 0.5 | > 1 | 0.25 to 0.5
15 | COc1cc2ncnc(Sc3cccc(NC(=O)Nc4cccc(C(C)(C)C)c4)c3)c2cc1OC [Ex 120, 1-(3-tert-butylphenyl)-3-(3-(6,7-dimethoxyquinazolin-4-ylthio)phenyl)urea] | 0.25 to 0.5 | > 1 | 0.25 to 0.5
16 | COc1cc2ncnc(Oc3cccc(NC(=O)Nc4cc(C(C)(C)CO)on4)c3)c2cc1OC [Ex 131, 1-(3-(6,7-dimethoxyquinazolin-4-yloxy)phenyl)-3-(5-(1-hydroxy-2-methylpropan-2-yl)isoxazol-3-yl)urea] | 0.25 to 0.5 | > 1 | 0.5 to 1
17 | COc1cc2ncnc(Oc3cccc(NC(=O)Nc4ccc(OC)c(C(F)(F)F)c4)c3)c2cc1OC [Ex 138, 1-(3-(6,7-dimethoxyquinazolin-4-yloxy)phenyl)-3-(4-methoxy-3-(trifluoromethyl)phenyl)urea] | 0.25 to 0.5 | > 1 | 0.25 to 0.5
18 | COc1cc2ncnc(Oc3cccc(NC(=O)Nc4ccc(Cl)cc4)c3)c2cc1OC [Ex 175, 1-(4-chlorophenyl)-3-(3-(6,7-dimethoxyquinazolin-4-yloxy)phenyl)urea] |  | > 1 | > 1
19 | COc1ccc(NC(=O)Nc2cccc(Oc3ncnc4cc(OC)c(OC)cc34)c2)cc1Cl [Ex 180, 1-(3-chloro-4-methoxyphenyl)-3-(3-(6,7-dimethoxyquinazolin-4-yloxy)phenyl)urea] |  | > 1 | > 1
20 | COc1cc2ncnc(Oc3cccc(NC(=O)Nc4cccc(C(F)(F)F)c4)c3)c2cc1OC [Ex 181, 1-(3-(6,7-dimethoxyquinazolin-4-yloxy)phenyl)-3-(3-(trifluoromethyl)phenyl)urea] |  | > 1 | > 1
21 | COc1cc2ncnc(Sc3cccc(NC(=O)Nc4cc(C(F)(F)F)nn4C)c3)c2cc1OC [Ex 193, 1-[3-(6,7-dimethoxyquinazolin-4-ylthio)phenyl]-3-[1-methyl-3-(trifluoromethyl)-1H-pyrazol-5-yl]urea] |  | 0.5 to 1 | < 0.25
22 | COc1cc2ncnc(Sc3cccc(NC(=O)Nc4cc(C(C)(CF)CF)nn4-c4ccccc4)c3)c2cc1OC [Ex 196, 1-[3-(1,3-difluoro-2-methylpropan-2-yl)-1-phenyl-1H-pyrazol-5-yl]-3-[3-(6,7-dimethoxyquinazolin-4-ylthio)phenyl]urea] |  | > 1 | < 0.25
